In PubChem BioAssay (NCI) one finds TGI and GI50 data, which are given here for 19 compounds.

Test systems include LXFL 529 NSCLC; RXF-631 renal; KM20L2 colon; XF 498 CNS; M19-MEL melanoma; HOP-18 NSCLC; DMS 114 small cell lung; DLD-1 colon; MDA-N.
Common to all, as to experiment: growth of human tumour cells (NCI), 48 h

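Briefly, cells in 96-well plates were exposed to five compound concentrations for 48 h, and endpoints were estimated by linear interpolation. GI50 marks 50% less growth. TGI marks complete inhibition of growth.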

As for `Clc1ccc(CNc2nc3ccccc3nc2-c2cccs2)c(Cl)c1`, the TGI with LXFL 529 NSCLC, in the assay on RXF-631 renal, with KM20L2 colon, with XF 498 CNS, in the assay with M19-MEL melanoma and in the assay on HOP-18 NSCLC was more than 100 µM each time.
Consider `Oc1c2c(c(O)c3ccccc13)=N[C@@H](c1ccccc1)[C@H](c1ccccc1)N=2`, for which the TGI in the assay with DMS 114 small cell lung, in the assay with LXFL 529 NSCLC, with DLD-1 colon, in the assay on XF 498 CNS and with M19-MEL melanoma was more than 100 µM each time.
Turning to `CN1CCN(C)C1c1cccc(C2N(C)CCN2C)c1`, the TGI in the assay on DMS 114 small cell lung, in the assay on LXFL 529 NSCLC, with RXF-631 renal, with DLD-1 colon, with KM20L2 colon and in the assay on M19-MEL melanoma was more than 100 µM in each case.
In the case of `CC/C=C\C/C=C\C1CC(=O)NCCCNCCCCN1` (stereo not drawn), the TGI in the assay on DMS 114 small cell lung, in the assay on LXFL 529 NSCLC, with DLD-1 colon, in the assay on KM20L2 colon and in the assay on M19-MEL melanoma was more than 100 µM in each case.
With `C=C(COC(C)=O)CC(/C=C(\C)CCC=C(C)C)OC(C)=O` (stereo not drawn), the TGI with DMS 114 small cell lung, with LXFL 529 NSCLC, in the assay with DLD-1 colon, in the assay with KM20L2 colon, with XF 498 CNS and in the assay with M19-MEL melanoma was more than 100 µM in each case.
Regarding `C[C@H]1CCC/C=C/[C@@H]2C[C@H](N)C[C@H]2[C@H](O)/C=C/C(=O)O1`, in the assay with MDA-N, the GI50 was more than 100 µM and the TGI is more than 100 µM.
For the compound `O=c1c2ccccc2c2c3c1cccc3c1cccc3c(=O)c4ccccc4c2c31`, the TGI with DMS 114 small cell lung, with LXFL 529 NSCLC, in the assay with RXF-631 renal, in the assay with DLD-1 colon, with KM20L2 colon and in the assay on M19-MEL melanoma was more than 100 µM in each case. This compound also displayed a TGI in the assay on HOP-18 NSCLC of more than 100 µM.
With `Cn1c(N)nc2c(nc(OCc3ccccc3)n2C2OC(CO)C(O)C2O)c1=O` (stereo not drawn), the TGI with MDA-N is more than 100 µM.
On to `CC1=Nc2c(ccc3c2C(=O)c2ccccc2C3=O)NC(c2ccncc2)C1` (stereo not drawn), for which the TGI with DMS 114 small cell lung, in the assay on LXFL 529 NSCLC, with RXF-631 renal, with DLD-1 colon, in the assay on KM20L2 colon and in the assay on XF 498 CNS was more than 100 µM each time. Also, the TGI with M19-MEL melanoma and with HOP-18 NSCLC was more than 100 µM each time. For the same compound, the GI50 in the assay on LXFL 529 NSCLC, with KM20L2 colon, in the assay on M19-MEL melanoma and in the assay on HOP-18 NSCLC was more than 100 µM throughout.
For the compound `COc1ccc2c(-c3cc4ccccc4o3)cc(=O)oc2c1`, the TGI was more than 100 µM with MDA-N; more than 100 µM in the assay on LXFL 529 NSCLC; more than 100 µM in the assay with RXF-631 renal; more than 100 µM in the assay on DLD-1 colon; more than 100 µM in the assay on KM20L2 colon; 45 µM in the assay with XF 498 CNS. Also, the TGI with M19-MEL melanoma and in the assay with HOP-18 NSCLC was more than 100 µM in each case.
`COc1ccc2c(c1)[C@@]13CCN4CC5=CCO[C@H]6CC(=O)N2[C@H]1[C@H]6[C@H]5C[C@H]43` registered a TGI in the assay with MDA-N of more than 100 µM.
Take `O=C1N[C@@H](O)[C@@H]2ON=C(c3ccccc3)[C@H]12`: the TGI in the assay on DMS 114 small cell lung, in the assay with LXFL 529 NSCLC, in the assay with RXF-631 renal, in the assay on DLD-1 colon, in the assay on KM20L2 colon and in the assay with XF 498 CNS was more than 100 µM each time. The TGI in the assay with M19-MEL melanoma and in the assay with HOP-18 NSCLC was more than 100 µM in each case.
Take `CC(=O)OCCOCBr`: the TGI with DMS 114 small cell lung, in the assay with LXFL 529 NSCLC, with RXF-631 renal, with DLD-1 colon, with KM20L2 colon and in the assay with XF 498 CNS was more than 100 µM in each case. In addition, the TGI with M19-MEL melanoma and in the assay with HOP-18 NSCLC was more than 100 µM each time.
As to `CC(C)(C)c1nc2c(o1)C(=Nc1ccc(F)cc1)c1ccccc1C2=O`, the TGI was 5.35 µM in the assay on MDA-N; 7.81 µM in the assay on DMS 114 small cell lung; more than 100 µM in the assay on LXFL 529 NSCLC; more than 100 µM in the assay with DLD-1 colon; 32.5 µM with KM20L2 colon; 3.94 µM in the assay with XF 498 CNS. Besides, the figures for the TGI in the assay on M19-MEL melanoma and in the assay with HOP-18 NSCLC were 3.08 µM and 28.8 µM, respectively.
Take `NC1=NC(=O)C(CC(=O)Nc2ccc([N+](=O)[O-])cc2[N+](=O)[O-])S1` (stereo not drawn): the TGI in the assay with DMS 114 small cell lung, in the assay with LXFL 529 NSCLC, with RXF-631 renal, in the assay with DLD-1 colon, in the assay with KM20L2 colon and in the assay on XF 498 CNS was more than 100 µM in each case. Further, the TGI with M19-MEL melanoma and in the assay on HOP-18 NSCLC was more than 100 µM throughout.
For the compound `CC(C)(C)C1(O)Cc2ccccc2C(=O)O1` (stereo not drawn), the TGI in the assay with DMS 114 small cell lung, in the assay with LXFL 529 NSCLC, in the assay with RXF-631 renal, with DLD-1 colon, in the assay with KM20L2 colon and in the assay with M19-MEL melanoma was more than 100 µM each time. The same compound had a TGI in the assay with HOP-18 NSCLC of more than 100 µM.
`Oc1c(Br)cc(CN(Cc2cc(Br)c(O)c(Br)c2)C2CCCCC2)cc1Br` came in with a TGI in the assay on MDA-N of more than 100 µM.
`COc1ccc(C2=NC(C)(C)CO2)cc1`: the TGI in the assay on DMS 114 small cell lung, with DLD-1 colon, with KM20L2 colon, in the assay with XF 498 CNS, in the assay with M19-MEL melanoma and in the assay on HOP-18 NSCLC was more than 100 µM throughout.
Turning to `COc1ccc(C2C(N)=NCC2c2ccccn2)cc1` (stereo not drawn), the TGI in the assay on DMS 114 small cell lung, in the assay with LXFL 529 NSCLC, in the assay on RXF-631 renal, in the assay with DLD-1 colon, in the assay with KM20L2 colon and with XF 498 CNS was more than 100 µM in each case. In addition, the TGI with M19-MEL melanoma is more than 100 µM; with HOP-18 NSCLC, 97.9 µM.
